Data taken from patent publication US20040259889A1, “Methods of treating pulmonary disease” (priority 2001, published 2004).

Columns and labels:
[1] = tested on: pacing heart failure preparations (Yorkshire pigs); assay: Systemic and pulmonary hemodynamics after A1 adenosine receptor antagonist infusion in pacing heart failure pigs (Example 1); type: in vivo, pig
Source text: Nineteen Yorkshire pigs (20-25 kg, male Hambone Farms, SC) were instrumented in order to induce pacing cardiac heart failure as described in Tomita et al., Circulation, 83, pp. 635-644 (1991). Briefly, under isoflurane anesthesia (3% in 1.5 L/min of oxygen) and through a left thoracotomy, a shielded stimulated electrode was sutured onto the left atrium, connected to a modified programmable pacemaker (8329 Medtronic, Inc., Minneapolis, Minn.) and buried in a subcutaneous pocket. Ten to fourteen days following recovery from the surgical procedure, a baseline echocardiographic study was performed and pacing initiate at 240 beats/min for 3 weeks. An additional group of 7 normal control animals were cared for in identical fashion with the exception of the pacing protocol. At the conclusion of the 3-week pacing period, the pacemakers were de-activated and echocardiographic studies were performed. For these studies, the animals were brought to the laboratory and the pacemakers were deactivated. Two-dimensional and M-mode echocardiographic studies (ATL Ulmark VI, 2.25 MHz transducer, Bothell, Wash.) were used to image the left ventricle from a right parasternal approach. Following the echocardiographic study, the animals were prepared for acute instrumentation and initiation of the study protocol.
The pigs were anesthetized with intravenous boluses of sufentanyl 2.0 μg/kg, etomidate 0.3 mg/kg, and vecuronium 10 mg, after which a tracheostomy was performed. A tubocurarine 12 mg intravenous bolus was administered after obtaining arterial pressure. Anesthesia was maintained throughout the procedure by continuous intravenous infusions of morphine sulfate 3 mg/kg/hr and tubocurarine 2 mg/hr. Etomidate 0.1 mg/kg intravenous was also given at 30 minute intervals. A maintenance infusion of 10 ml/kg/hr of lactated Ringer's solution was maintained throughout the protocol. […] A multi-lumened thermodilution catheter (7.5 Fr, Baxter Healthcare Corp., Irvine, Calif.) was positioned in a pulmonary artery via the right external jugular vein and a large bore catheter (7 Fr) was placed in the left external jugular vein for fluid administration. The carotid artery was exposed and cannulated, and the catheter (7 Fr) was advanced to the aortic root for aortic blood pressure measurements and blood samplings.
Following instrumentation and a 15-minute stabilization period, baseline hemodynamics were recorded and digitized. Thermodilution derived cardiac output and ejection fraction were obtained from the pulmonary artery catheter in triplicate. All measurements were simultaneously recorded with the ventilator temporarily suspended in order to prevent respiratory artifact the recordings. An arterial sample was drawn for electrolyte assays. Pulmonary and systemic vascular resistances were computed from the thermodilution cardiac output and pressure measurements using standard formulae.
Following instrumentation and collection of baseline measurements, the animals were randomly assigned to receive either vehicle infusion (polyethylene glycol, 3 ml intravenous, n=10) or the A1 adenosine receptor antagonist (1 mg/kg 1,8-(3-Oxa-tricyclo[3.2.1.0^2,4]oct-6-yl)-1,3-dipropyl-3,7-dihydro-purine-2,6-dione (BG9719); n=9). Following infusion of vehicle or BG9719, the hemodynamic measurements described in the previous section were repeated at 10, 30, 60, 90, 120 minutes post infusion.
Changes in hemodynamics were initially examined between the control and A1 adenosine receptor antagonist (BG9719) groups by ANOVA. Comparisons between these baseline values following randomization were performed by a 2-way ANOVA. Comparisons of these parameters following infusion were compared using a multi-way ANOVA for repeated measures. Pair-wise comparisons were performed with a Bonferroni adjusted t-test. All statistical analyses were performed using statistical software programs (BMDP Statistical Software Inc. University of California Press, Los Angeles, Calif.).

[2] = tested on: pacing HF preparations (Yorkshire pigs); assay: Systemic and pulmonary hemodynamics after A1 adenosine receptor antagonist infusion in pacing heart failure pigs (Example 2); type: in vivo, pig
Description: Four Yorkshire pigs (25-30 kg, male, Hambone Farms, SC) were implanted with a pacemaker (8329, Medtronic, Inc., Minneapolis, Minn.) in order to induce pacing CHF as described above. Ten to 14 days following recovery from the surgical procedure, a baseline echocardiographic study (ATL Ultramark VI, 2.25 MHz transducer, Bothell, Wash.) was performed and pacing initiated at 240 beats/min for 3 weeks. An additional group of 6 normal control animals were cared for in identical fashion with the exception of the pacing protocol. At the conclusion of the 3-week pacing period, the pacemakers were deactivated and echocardiographic studies were used to image the LV from a right parasternal approach. Following the echocardiographic study, the animals were prepared for acute instrumentation and initiation of the study protocol.
The pigs were anesthetized (i.v. sufentanyl […], etomidate 0.3 mg/kg) and paralyzed (vecuronium 10 mg, tubocurarine 12 mg). A maintenance infusion of 10 ml/kg/hr of lactated ringer's solution was maintained throughout the protocol. A thermodilution catheter (7.5 Fr, Baxter Healthcare Corp., Irvine, Calif.) was positioned in the pulmonary artery via the right external jugular vein and a large bore catheter (7 Fr) was placed in the left external jugular vein for fluid administration. The carotid artery was exposed and cannulated, and the catheter (7 Fr) was advanced to the aortic root for aortic blood pressure measurements and blood sampling drained.
Following instrumentation and a 10-minute stabilization period, baseline hemodynamics were recorded and digitized. Thermodilution derived cardiac output and ejection fraction were obtained from the pulmonary artery catheter in triplicate. Pulmonary and systemic vascular resistances were computed from the pressure measurements and cardiac output and using standard formulae.
Following instrumentation and collection of baseline measurements, the A1 receptor antagonist (3-[4-(2,6-Dioxo-1,3-dipropyl-2,3,6,7-tetrahydro-1H-purin-8-yl)-bicyclo[2.2.2]oct-1-yl]-propionic acid (BG9928), 1 mg/kg) was infused intravenously. Hemodynamic measurements described in the previous section were repeated at 10, 20, 30, 60, 90, and 120 minutes post infusion.
Comparisons of basal hemodynamics between the control and HF groups were performed using Student's t-test. Time-dependent changes in hemodynamics following A1 block infusion were examined by ANOVA. Pair wise comparisons were performed with a Bonferroni adjusted t-test. All statistical analyses were performed using statistical software programs (BMDP Statistical Software Inc. University of California Press, Los Angeles, Calif.). Results are presented as mean ± standard error of the mean (SEM). Values of p<0.05 were considered to be statistically significant.

[3] = BG9719 1 mg/kg infusion, 10-120 min post infusion
[4] = BG9928 1 mg/kg intravenous infusion

| SMILES | pulmonary vascular resistance (PVR), decrease from baseline ([1]; 1 mg/kg intravenous infusion, 10 min post treatment, then returned to baseline levels, p<0.05) [%] | pulmonary artery pressure (PAP), change in words ([1]; 1 mg/kg, 30 minutes after treatment, remained depressed) | pulmonary capillary wedge pressure (PCWP), change in words ([1]; 1 mg/kg, 90 minutes after treatment) | pulmonary capillary wedge pressure (PCWP) ([1]; 1 mg/kg, 90 minutes post treatment, p<0.05, mean±SEM) [mmHg] | mean pulmonary artery pressure after treatment ([1]; 1 mg/kg, from 30 min post treatment, baseline 30±1 mmHg, p<0.05, mean±SEM) [mmHg] | systemic vascular resistance, change from baseline ([1]; BG9719 1 mg/kg infusion) | cardiac output (CO), change from baseline [1, 3] | heart rate (HR), change from baseline [1, 3] | mean arterial pressure (MAP), change from baseline [1, 3] | systemic vascular resistance (SVR), change from baseline ([2]; 1 mg/kg intravenous infusion, 10 min post treatment) | pulmonary vascular resistance (PVR), fall from baseline ([2]; 1 mg/kg intravenous infusion, 10 min post treatment, p<0.05) [%] | cardiac output, change from baseline [2, 4] | heart rate, change from baseline [2, 4] | mean arterial pressure, change from baseline [2, 4] |
| --- | --- | --- | --- | --- | --- | --- | --- | --- | --- | --- | --- | --- | --- | --- |
| CCCn1c(=O)c2[nH]c(C3CC4CC3C3OC43)nc2n(CCC)c1=O (centres unmarked) [BG9719, 8-(3-Oxa-tricyclo[3.2.1.0^2,4]oct-6-yl)-1,3-dipropyl-3,7-dihydro-purine-2,6-dione] | 38 | decreased | decreased | 9 ± 2 | 23±3 | No change | No change | No change | No change | – | – | – | – | – |
| CCCn1c(=O)c2[nH]c(C34CCC(CCC(=O)O)(CC3)CC4)nc2n(CCC)c1=O [BG9928, 3-[4-(2,6-Dioxo-1,3-dipropyl-2,3,6,7-tetrahydro-1H-purin-8-yl)-bicyclo[2.2.2]oct-1-yl]-propionic acid] | – | – | – | – | – | – | – | – | – | no change | 18 | No change | No change | No change |
